Assay results from patent US12098148B2, “Therapeutic compounds” (C4X Discovery Limited, priority 2018, dated 2024).

Experiments:
[1] = tested on: NQO1 mRNA in BEAS-2B cells; experiment: Beas2B NQO1 mRNA cell based assay; design: species or system human; details: Homo sapiens, BEAS-2B, 24 h, 24 h compound treatment, increase in NQO1 mRNA vs vehicle (0.1% DMSO), read-out: EC50
How it was run: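 Relative NQO1 transcript level derived by ΔΔCT with human β-actin as internal control, using direct-lysate one-step RT-qPCR. Cells were BEAS-2B, plated overnight then treated with compound for 24 h.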

[2] = target: human KEAP1 (N-term, residues 321-609) (Homo sapiens, UniProt Q14145); experiment: biochemical;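 further: fluorescence polarization competition assay of Kelch domain binding to NRF2, 12-point 1:3 dilution series from 10 µM, read after 1 h at room temperature, floor 10 nM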
Chain of human KEAP1 (N-term, residues 321-609) (Q14145 321-609): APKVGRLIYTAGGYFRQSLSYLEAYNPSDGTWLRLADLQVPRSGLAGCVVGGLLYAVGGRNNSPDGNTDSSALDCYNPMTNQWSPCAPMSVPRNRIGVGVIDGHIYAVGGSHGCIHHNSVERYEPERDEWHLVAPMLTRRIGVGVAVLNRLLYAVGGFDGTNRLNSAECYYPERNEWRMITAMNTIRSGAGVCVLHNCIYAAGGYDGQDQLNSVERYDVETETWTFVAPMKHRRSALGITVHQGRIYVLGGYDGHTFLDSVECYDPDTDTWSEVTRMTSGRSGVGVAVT

Row | Compound | EC50 [1] | IC50 [2]
1 | O=C(O)[C@H]1CCCC[C@H]1C(=O)N1CCc2c(Cl)ccc(OCc3nnc4ccccn34)c2[C@H]1CN1CCCC1=O [Example 94, (1S,2R)-2-((S)-8-([1,2,4]Triazolo[4,3-a]pyridin-3-ylmethoxy)-5-chloro-1-((2-oxopyrrolidin-1-yl)methyl)-1,2,3,4-tetrahydroisoquinoline-2-carbonyl) cyclohexane-1-carboxylic acid] | 7.8 nM | 7.7 nM
2 | Cc1noc2nc(COc3ccc(Cl)c4c3[C@@H](CN3CCCC3=O)N(C(=O)[C@@H]3CCCC[C@@H]3C(=O)O)CC4)ccc12 [Example 95, (1S,2R)-2-((S)-5-Chloro-8-((3-methylisoxazolo[5,4-b]pyridin-6-yl)methoxy)-1-((2-oxopyrrolidin-1-yl)methyl)-1,2,3,4-tetrahydroisoquinoline-2-carbonyl) cyclohexane-1-carboxylic acid] | 3.7 nM | 8 nM
3 | Cn1nnc(COc2ccc(Cl)c3c2[C@@H](CN2CCCC2=O)N(C(=O)C2C4CCC(C4)C2C(=O)O)CC3)c1C(F)F (stereo partly drawn) [Example 96, 3-((S)-5-Chloro-8-((5-(difluoromethyl)-1-methyl-1H-1,2,3-triazol-4-yl)methoxy)-1-((2-oxopyrrolidin-1-yl)methyl)-1,2,3,4-tetrahydroisoquinoline-2-carbonyl)bicyclo[2.2.1]heptane-2-carboxylic acid] | 210 nM | 18 nM
4 | Cn1nnc(COc2ccc(Cl)c3c2[C@@H](CN2CCCC2=O)N(C(=O)C2CCOC2C(=O)O)CC3)c1C(F)F (stereo partly drawn) [Example 97, 3-((S)-5-chloro-8-((5-(difluoromethyl)-1-methyl-1H-1,2,3-triazol-4-yl)methoxy)-1-((2-oxopyrrolidin-1-yl)methyl)-1,2,3,4-tetrahydroisoquinoline-2-carbonyl) tetrahydrofuran-2-carboxylic acid] | 750 nM | 17 nM
5 | Cn1nc(COc2ccc(Cl)c3c2[C@@H](CN2CCCC2=O)N(C(=O)[C@@H]2CCCC[C@@H]2C(=O)O)CC3)c2ccccc21 [Example 98, (1S,2R)-2-((S)-5-Chloro-8-((1-methyl-1H-indazol-3-yl)methoxy)-1-((2-oxopyrrolidin-1-yl)methyl)-1,2,3,4-tetrahydroisoquinoline-2-carbonyl) cyclohexane-1-carboxylic acid] | 330 nM | 10 nM
6 | Cn1cnc2ccc(COc3ccc(Cl)c4c3[C@@H](CN3CCCC3=O)N(C(=O)[C@@H]3CCCC[C@@H]3C(=O)O)CC4)nc21 [Example 99, (1S,2R)-2-((S)-5-chloro-8-((3-methyl-3H-imidazo [4,5-b]pyridin-5-yl)methoxy)-1-((2-oxopyrrolidin-1-yl)methyl)-1,2,3,4-tetrahydroisoquinoline-2-carbonyl) cyclohexane-1-carboxylic acid] | 520 nM | 9.7 nM
7 | C[C@]1(C(=O)O)CCCC[C@H]1C(=O)N1CCc2c(Cl)ccc(OCc3noc4ccccc34)c2[C@H]1CN1CCCC1=O [Example 100, (1S,2R)-2-((S)-8-(benzo[d]isoxazol-3-ylmethoxy)-5-chloro-1-((2-oxopyrrolidin-1-yl)methyl)-1,2,3,4-tetrahydroisoquinoline-2-carbonyl)-1-methylcyclohexane-1-carboxylic acid] | 3.4 nM | 5.1 nM
8 | Cn1nnc(COc2ccc(Cl)c3c2[C@@H](CN2CCCC2=O)N(C(=O)C2CC(F)(F)CC2C(=O)O)CC3)c1C(F)F (stereo partly drawn) [Example 101, 2-((S)-5-chloro-8-((5-(difluoromethyl)-1-methyl-1H-1,2,3-triazol-4-yl)methoxy)-1-((2-oxopyrrolidin-1-yl)methyl)-1,2,3,4-tetrahydroisoquinoline-2-carbonyl)-4,4-difluorocyclopentane-1-carboxylic acid] | 710 nM | 1900 nM
9 | Cn1nnc(COc2ccc(Cl)c3c2[C@@H](CN2CCCC2=O)N(C(=O)[C@@H]2CCC[C@]2(C)C(=O)O)CC3)c1C(F)F [Example 102, (1S,2R)-2-((S)-5-chloro-8-((5-(difluoromethyl)-1-methyl-1H-1,2,3-triazol-4-yl)methoxy)-1-((2-oxopyrrolidin-1-yl)methyl)-1,2,3,4-tetrahydroisoquinoline-2-carbonyl)-1-methylcyclopentane-1-carboxylic acid] | 1 nM | 4.8 nM
10 | Cc1nnc(COc2ccc(Cl)c3c2[C@@H](CN2CCCC2=O)N(C(=O)[C@@H]2CCCC[C@@H]2C(=O)O)CC3)n1C [Example 103, (1S,2R)-2-((S)-5-chloro-8-((4,5-dimethyl-4H-1,2,4-triazol-3-yl)methoxy)-1-((2-oxopyrrolidin-1-yl)methyl)-1,2,3,4-tetrahydroisoquinoline-2-carbonyl) cyclohexane-1-carboxylic acid] | 67 nM | 6.7 nM
11 | Cn1cc(COc2ccc(Cl)c3c2[C@@H](CN2CCCC2=O)N(C(=O)[C@@H]2CCCC[C@@H]2C(=O)O)CC3)nn1 [Example 104, (1S,2R)-2-((S)-5-Chloro-8-((1-methyl-1H-1,2,3-triazol-4-yl)methoxy)-1-((2-oxopyrrolidin-1-yl)methyl)-1,2,3,4-tetrahydroisoquinoline-2-carbonyl)cyclohexane-1-carboxylic acid] | 27 nM | 5.5 nM
12 | Cn1nnc(COc2ccc(Cl)c3c2[C@@H](CN2CCCC2=O)N(C(=O)[C@@H]2CCCC[C@]2(F)C(=O)O)CC3)c1C(F)F [Example 105, (1R,2S)-2-((S)-5-Chloro-8-((5-(difluoromethyl)-1-methyl-1H-1,2,3-triazol-4-yl)methoxy)-1-((2-oxopyrrolidin-1-yl)methyl)-1,2,3,4-tetrahydroisoquinoline-2-carbonyl)-1-fluorocyclohexane-1-carboxylic acid] | 24 nM | 7.1 nM
13 | Cn1cc(COc2ccc(Cl)c3c2[C@@H](CN2CCCC2=O)N(C(=O)[C@@H]2CCCC[C@]2(C)C(=O)O)CC3)nn1 [Example 106, (1S,2R)-2-((S)-5-chloro-8-((1-methyl-1H-1,2,3-triazol-4-yl)methoxy)-1-((2-oxopyrrolidin-1-yl)methyl)-1,2,3,4-tetrahydroisoquinoline-2-carbonyl)-1-methylcyclohexane-1-carboxylic acid] | 2.9 nM | 5.1 nM
14 | Cc1c(COc2ccc(Cl)c3c2[C@@H](CN2CCCC2=O)N(C(=O)[C@@H]2CCCC[C@]2(C)C(=O)O)CC3)nnn1C [Example 107, (1S,2R)-2-((S)-5-Chloro-8-((1,5-dimethyl-1H-1,2,3-triazol-4-yl)methoxy)-1-((2-oxopyrrolidin-1-yl)methyl)-1,2,3,4-tetrahydroisoquinoline-2-carbonyl)-1-methylcyclohexane-1-carboxylic acid] | 0.35 nM | 6.6 nM
15 | Cn1nnc(COc2ccc(Cl)c3c2[C@@H](CN2CCCC2=O)N(C(=O)[C@@H]2CCCC[C@]2(C)C(=O)O)CC3)c1C(F)(F)F [Example 108, (1S,2R)-2-((S)-5-Chloro-8-((1-methyl-5-(trifluoromethyl)-1H-1,2,3-triazol-4-yl)methoxy)-1-((2-oxopyrrolidin-1-yl)methyl)-1,2,3,4-tetrahydroisoquinoline-2-carbonyl)-1-methylcyclohexane-1-carboxylic acid] | 1.5 nM | 5.9 nM
